Data published in publication PMC6151740, “Pharmacokinetics, Tissue Distribution, and Elimination of Three Active Alkaloids in Rats after Oral Administration of the Effective Fraction of Alkaloids from Ramulus Mori, an Innovative Hypoglycemic Agent” (Molecules : A Journal of Synthetic Chemistry and Natural …, 2017).
Like-named read-outs stand apart in the source and are kept apart here.

What was measured:
[1] = In situ single-pass intestinal perfusion (rat jejunum, mesenteric vein blood); type: in vivo; settings: by 60 min, n = 5
Experimental: The surgical procedures were similar to those described elsewhere. The Hank’s balanced salt solution (HBSS, pH = 7.4) with SZ–A (21.73 μg/mL) or DNJ (50 μM) at 37 °C was infused into the jejunum at 0.3 mL/min individually. Phenol Red (50 μM) was added to serve as a nonabsorbable marker for measuring water flux. The blood from mesenteric vein and perfusate were collected at five-minute intervals. The plasma was separated by centrifugation and perfusate were immediately frozen at −20 °C for LC-MS/MS analysis. Atenolol and propranolol, the low- and high-permeability markers, were used to check the integrity of the intestinal membrane.

[2] = Plasma pharmacokinetic study in rats after oral and intravenous administration of SZ–A or purified DNJ; type: in vivo, rat; settings: for AUC(0-inf) / AUC(0-t) / Tmax / half-life / clearance / MRT last / MRT inf / Vd / Cmax / CLz: rat plasma, n = 5; for clearance: read-out: CLz (converted); for MRT last: read-out: MRT0–t; for MRT inf: read-out: MRT0–∞; for bioavailability: plasma, read-out: F (oral absolute bioavailability)
Experimental: The oral dosing solutions used for all animal studies were prepared by dissolving in water. Thirty rats weighed 250–270 g after acclimation were randomly divided into six groups of five animals each. For oral administration, rats were treated with SZ–A (40, 200, 1000 mg/kg) or purified DNJ (15 mg/kg) dissolve in water. Blood samples (about 0.25 mL) were collected via the postorbital venous plexus veins under ether anesthesia into heparinized polythene tubes before dosing and at 0.08, 0.17, 0.33, 0.50, 1, 2, 3, 4, 6, 8, 12, 24 and 36 h after drug administration. For intravenous dosing, rats were given SZ–A (4 mg/kg) or DNJ (1.5 mg/kg) dissolved in normal saline solution through the tail vein. Then blood samples were collected at 0.03, 0.08, 0.17, 0.33, 0.67, 1, 2, 4, 6, 8, 12, 24, and 36 h under similar conditions. Considering the physical limit of blood in rats, during the process of the pharmacokinetic experiment, each rat was received 0.25 mL of sterile isotonic saline at each time point after blood sampling for compensation of body fluid loss, and the blood loss was also corrected at a definite degree. Plasma was separated by centrifuging the blood samples at 1660× g for 5 min and stored at −20 °C until LC-MS/MS analysis. Data fitting and pharmacokinetic parameter estimates were carried out using non–compartmental analysis via WinNonlin Software (version 6.1, Pharsight Corporation, Mountain View, CA, USA). F was calculated according to the formula: F (%) = (AUC oral/AUC i.v.) × (dose i.v./dose oral) × 100.
The plasma, feces, urine, and bile samples (100 μL) were added to 1 μL of Tris aqueous solution (2 M), 10 μL of IS working solution (2 μg/mL), and 190 μL methanol–acetonitrile (25:75, v/v). The incubation supernatant samples (300 μL) were mixed with 1 μL Tris aqueous solution (2 M) and 10 μL of IS working solution (2 μg/mL). All mixtures were vortexed for 30 s followed by centrifugation at 18,880× g for 5 min, twice.
Briefly, the LC-MS/MS instrument consisted of a 1260 HPLC system (Agilent, Santa Clara, CA, USA) and API4000 triple quadrupole mass spectrometer (Applied Biosystems Sciex, Toronto, ON, Canada) with an electrospray ionization (ESI) source and Analyst software (version 1.5.2, Applied Biosystems Sciex, Toronto, ON, Canada) for data acquisition and processing. DNJ, FGM, DAB, and IS were separated in a Xbridge amide™ column (3.5 μm, 4.6 mm × 150 mm; Waters, Milford, MA, USA) with a gradient mobile phase of acetonitrile-water (0.1% ammonium hydroxide) at a flow rate of 0.7 mL/min. An ESI source was used in the positive ion mode. The optimized mass spectrometric condition was as follows: ion spray voltage, 5500 V; collision gas, 6 psi; curtain gas, 20 psi; ion source gas 1 (GS1), 45 psi; ion source gas 2 (GS2), 45 psi; temperature, 450 °C. The multiple reaction monitoring (MRM) transitions of DNJ, FGM, DAB, and IS were m/z 164.0→110.1 (declustering potential (DP) 50 V, collision energy (CE) 22 V, collision cell exit potential (CXP) 10 V), 148.0→112.1 (DP 66 V, CE 21 V, CXP 10 V), 134.0→98.0 (DP 60 V, CE 20 V, CXP 10 V) and 208.0→146.1 (DP 50 V, CE 27 V, CXP 10 V), respectively.

[3] = DNJ 110 mg/kg ingested; cited from earlier work
[4] = Sprague-Dawley, iv, SZ–A 4 mg/kg i.v.
[5] = Sprague-Dawley, iv, purified DNJ 1.5 mg/kg i.v.
[6] = Sprague-Dawley, po, SZ–A 40 mg/kg p.o.
[7] = Sprague-Dawley, po, SZ–A 200 mg/kg p.o.
[8] = Sprague-Dawley, po, SZ–A 1000 mg/kg p.o.
[9] = Sprague-Dawley, po, purified DNJ 15 mg/kg p.o.

With `OC[C@H]1NC[C@H](O)[C@@H](O)[C@@H]1O` [DNJ, 1-deoxynojirimycin] the “cumulative amount per unit of area absorbed into the mesenteric venous blood” value ([1]; perfusion of SZ–A 21.73 μg/mL (containing 50 μM DNJ)) was 2136.1 pmol/cm^2, the “cumulative amount per unit of area absorbed into the mesenteric venous blood” value ([1]; perfusion of purified DNJ 50 μM) was 1787.1 pmol/cm^2 and the AUC(0-inf) [2, 4] was 1400 ± 175 ng·h/mL. It also gave an AUC(0-t) [2, 4] of 1400 ± 174 ng·h/mL, a Tmax [2, 4] of 1.98 min and a half-life [2, 4] of 17.4 ± 4.8 min. It also gave a clearance [2, 4] of 18.1 mL/min/kg, an MRT last [2, 4] of 48 ± 30 min and an MRT inf [2, 4] of 49.2 ± 30.6 min. It also gave a Vd ([2]; Sprague-Dawley, iv, SZ–A 4 mg/kg i.v., read-out: Vd) of 0.453 ± 0.13 L/kg, an AUC(0-inf) [2, 5] of 1140 ± 108 ng·h/mL and an AUC(0-t) [2, 5] of 1130 ± 108 ng·h/mL. It also gave a Cmax [2, 5] of 4520 ± 576 ng/mL, a Tmax [2, 5] of 1.8 min and a half-life [2, 5] of 15 ± 3 min. For the same molecule, the clearance [2, 5] was 22.2 mL/min/kg, the MRT last [2, 5] was 28.8 ± 4.8 min and the MRT inf [2, 5] was 30 ± 4.8 min. The Vd ([2]; Sprague-Dawley, iv, purified DNJ 1.5 mg/kg i.v., read-out: Vd) was 0.486 ± 0.0854 L/kg, the bioavailability ([2]; Sprague-Dawley, po, rat, SZ–A 40 mg/kg p.o. vs SZ–A 4 mg/kg i.v.) was 72.4% and the bioavailability ([2]; Sprague-Dawley, po, rat, SZ–A 200 mg/kg p.o. vs SZ–A 4 mg/kg i.v.) was 38.6%. The bioavailability ([2]; Sprague-Dawley, po, rat, SZ–A 1000 mg/kg p.o. vs SZ–A 4 mg/kg i.v.) was 33.3%, the bioavailability ([2]; Sprague-Dawley, po, rat, purified DNJ 15 mg/kg p.o. vs DNJ 1.5 mg/kg i.v.) was 59.4% and the AUC(0-inf) [2, 6] was 10200 ng·h/mL. The AUC(0-t) [2, 6] was 10100 ng·h/mL, the Cmax [2, 6] was 6370 ± 1120 ng/mL and the Tmax [2, 6] was 40.2 ± 17.4 min. The half-life [2, 6] was 78 ± 15 min, the MRT last [2, 6] was 103 ± 40.2 min and the MRT inf [2, 6] was 107 ± 41.4 min. For the same molecule, the AUC(0-inf) [2, 7] was 27000 ng·h/mL, the AUC(0-t) [2, 7] was 27000 ng·h/mL and the Cmax [2, 7] was 10500 ng/mL. The Tmax [2, 7] was 40.2 ± 12 min, the half-life [2, 7] was 127 ± 28.2 min and the MRT last [2, 7] was 158 ± 28.8 min. The MRT inf [2, 7] was 163 ± 29.4 min, the AUC(0-inf) [2, 8] was 117000 ng·h/mL and the AUC(0-t) [2, 8] was 116000 ng·h/mL. It also gave a Cmax [2, 8] of 25100 ng/mL, a Tmax [2, 8] of 25.8 ± 5.4 min and a half-life [2, 8] of 211 ± 51 min. It also gave an MRT last [2, 8] of 307 ± 88.8 min, an MRT inf [2, 8] of 315 ± 91.8 min and an AUC(0-t) [2, 9] of 6730 ± 1150 ng·h/mL. The Cmax [2, 9] was 4860 ± 1120 ng/mL, the Tmax [2, 9] was 40.2 ± 17.4 min and the half-life [2, 9] was 52.8 ± 8.4 min. The MRT last [2, 9] was 106 ± 15 min, the MRT inf [2, 9] was 111 ± 12.6 min and the CLz ([2]; SZ–A 40 mg/kg p.o.) was 25.013 ± 3.258 mL/min/kg. It also gave a Vd ([2]; SZ–A 40 mg/kg p.o.) of 2.8301 ± 0.7411 L/kg, a CLz ([2]; SZ–A 200 mg/kg p.o.) of 47.062 ± 6.693 mL/min/kg and a Vd ([2]; SZ–A 200 mg/kg p.o.) of 8.6178 ± 2.3175 L/kg. For the same molecule, the CLz ([2]; SZ–A 1000 mg/kg p.o.) was 54.045 ± 4.968 mL/min/kg, the Vd ([2]; SZ–A 1000 mg/kg p.o.) was 16,468.3 ± 4217.0 mL/kg and the CLz ([2]; purified DNJ 15 mg/kg p.o.) was 37.693 ± 6.373 mL/min/kg. The “time to reach maximum plasma concentration (Cmax)” value ([2]; rat, after oral administration of SZ–A (40, 200, 1000 mg/kg), upper bound over doses) was no more than 0.67 h, the “average AUC of DNJ in the SZ–A group relative to the DNJ group” value ([2]; rat, intravenous injection, SZ–A 4 mg/kg vs purified DNJ 1.5 mg/kg) was 1.2 fold and the “average AUC of DNJ in the SZ–A group relative to the DNJ group” value ([2]; rat, oral administration, SZ–A 40 mg/kg vs purified DNJ 15 mg/kg) was 1.5 fold. The “fraction of ingested DNJ incorporated into the rat plasma” value [3] was 1%.
